Data published in ChEMBL document CHEMBL4477225, “Development of a cell viability assay to assess drug metabolite structure-toxicity relationships” (Bioorg Med Chem Lett, 2016).

Assays:
Type in all cases: ADME, cell-based
Cytochrome P450 2C9 [1] = molecular target: T1, Cytochrome P450 2C9 (Homo sapiens, UniProt P11712); test: (§1) Drug activation in human Hep3B cells assessed as human CYP2C9-mediated drug metabolism-induced cytotoxicity measured as decrease in cell viability at 118.7 uM pre-incubated with BSO for 18 hrs followed by incubation with compound for 3 hrs in presence of NADPH measured after 24 hrs in absence of compound, CYP3A4 and NADPH by cell titer-glo luminescence assay relative to BSO alone; conditions: recombinant enzyme
T1 sequence (P11712 whole entry): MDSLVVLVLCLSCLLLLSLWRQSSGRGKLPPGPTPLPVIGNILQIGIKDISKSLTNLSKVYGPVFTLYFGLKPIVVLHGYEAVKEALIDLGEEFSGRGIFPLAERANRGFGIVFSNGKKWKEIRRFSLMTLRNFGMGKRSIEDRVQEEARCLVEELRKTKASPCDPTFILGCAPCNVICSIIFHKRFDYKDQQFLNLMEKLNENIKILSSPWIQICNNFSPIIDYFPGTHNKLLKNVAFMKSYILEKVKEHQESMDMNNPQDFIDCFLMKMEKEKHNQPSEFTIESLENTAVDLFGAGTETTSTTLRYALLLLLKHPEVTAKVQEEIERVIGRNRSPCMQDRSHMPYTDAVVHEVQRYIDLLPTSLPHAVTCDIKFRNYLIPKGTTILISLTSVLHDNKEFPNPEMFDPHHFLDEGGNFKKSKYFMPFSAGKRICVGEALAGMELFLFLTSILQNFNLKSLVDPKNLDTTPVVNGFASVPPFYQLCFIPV

Cytochrome P450 3A4 [2] = molecular target: T2, Cytochrome P450 3A4 (Homo sapiens, UniProt P08684); test: as §1, with “CYP3A4-mediated” for “CYP2C9-mediated”, “89.6” for “118.7”; conditions: recombinant enzyme
T2 sequence (P08684 whole entry): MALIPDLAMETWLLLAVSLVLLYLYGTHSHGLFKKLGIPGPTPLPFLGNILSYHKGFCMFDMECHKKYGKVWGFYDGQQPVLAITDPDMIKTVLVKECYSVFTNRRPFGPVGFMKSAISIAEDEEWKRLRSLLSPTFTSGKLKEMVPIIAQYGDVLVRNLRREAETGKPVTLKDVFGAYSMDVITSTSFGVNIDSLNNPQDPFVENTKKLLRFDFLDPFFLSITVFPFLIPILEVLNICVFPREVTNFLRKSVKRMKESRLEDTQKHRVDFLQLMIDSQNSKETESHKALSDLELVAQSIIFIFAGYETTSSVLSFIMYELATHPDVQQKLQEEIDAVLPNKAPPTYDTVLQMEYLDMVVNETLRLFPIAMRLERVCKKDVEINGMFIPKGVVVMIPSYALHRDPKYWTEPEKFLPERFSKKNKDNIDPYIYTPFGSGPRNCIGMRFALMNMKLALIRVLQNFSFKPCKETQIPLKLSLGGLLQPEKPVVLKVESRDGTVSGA

Cytochrome P450 2D6 [3] = molecular target: T3, Cytochrome P450 2D6 (Homo sapiens, UniProt P10635); test: as §1, with “CYP2D6-mediated” for “CYP2C9-mediated”, “130.3” for “118.7”; conditions: recombinant enzyme
T3 sequence (P10635 whole entry): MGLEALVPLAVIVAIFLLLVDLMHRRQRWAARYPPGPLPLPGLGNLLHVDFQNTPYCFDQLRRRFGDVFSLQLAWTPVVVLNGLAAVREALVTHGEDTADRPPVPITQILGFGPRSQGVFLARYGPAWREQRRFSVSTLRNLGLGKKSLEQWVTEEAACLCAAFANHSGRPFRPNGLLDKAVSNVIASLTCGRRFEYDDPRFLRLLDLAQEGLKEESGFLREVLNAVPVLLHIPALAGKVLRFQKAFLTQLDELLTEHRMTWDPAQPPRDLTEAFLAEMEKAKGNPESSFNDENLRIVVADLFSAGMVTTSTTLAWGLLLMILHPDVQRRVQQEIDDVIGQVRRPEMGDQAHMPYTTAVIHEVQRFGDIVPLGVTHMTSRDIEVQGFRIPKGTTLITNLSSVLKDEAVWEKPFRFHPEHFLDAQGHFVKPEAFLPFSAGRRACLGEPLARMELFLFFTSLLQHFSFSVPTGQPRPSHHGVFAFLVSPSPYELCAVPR

Cytochrome P450 2D6 [4] = molecular target: T3, Cytochrome P450 2D6; test: as §1, with “CYP2D6-mediated” for “CYP2C9-mediated”, “12.8” for “118.7”; conditions: recombinant enzyme
Cytochrome P450 2C9 [5] = molecular target: T1, Cytochrome P450 2C9; test: as §1, with “7.6” for “118.7”; conditions: recombinant enzyme
Cytochrome P450 3A4 [6] = molecular target: T2, Cytochrome P450 3A4; test: as §1, with “CYP3A4-mediated” for “CYP2C9-mediated”, “9.6” for “118.7”; conditions: recombinant enzyme
Cytochrome P450 3A4 [7] = molecular target: T2, Cytochrome P450 3A4; test: as §1, with “CYP3A4-mediated” for “CYP2C9-mediated”, “89.1” for “118.7”; conditions: recombinant enzyme
Cytochrome P450 2D6 [8] = molecular target: T3, Cytochrome P450 2D6; test: as §1, with “CYP2D6-mediated” for “CYP2C9-mediated”, “162.8” for “118.7”; conditions: recombinant enzyme
Cytochrome P450 2C9 [9] = molecular target: T1, Cytochrome P450 2C9; test: as §1, with “200.9” for “118.7”; conditions: recombinant enzyme
Cytochrome P450 3A4 [10] = molecular target: T2, Cytochrome P450 3A4; test: as §1, with “CYP3A4-mediated” for “CYP2C9-mediated”, “8.5” for “118.7”; conditions: recombinant enzyme
Cytochrome P450 2D6 [11] = molecular target: T3, Cytochrome P450 2D6; test: as §1, with “CYP2D6-mediated” for “CYP2C9-mediated”, “15.2” for “118.7”; conditions: recombinant enzyme
Cytochrome P450 2C9 [12] = molecular target: T1, Cytochrome P450 2C9; test: as §1, with “40.5” for “118.7”; conditions: recombinant enzyme
Cytochrome P450 3A4 [13] = molecular target: T2, Cytochrome P450 3A4; test: as §1, with “CYP3A4-mediated” for “CYP2C9-mediated”, “6.5” for “118.7”; conditions: recombinant enzyme
Cytochrome P450 2D6 [14] = molecular target: T3, Cytochrome P450 2D6; test: as §1, with “CYP2D6-mediated” for “CYP2C9-mediated”, “4.8” for “118.7”; conditions: recombinant enzyme
Cytochrome P450 2C9 [15] = molecular target: T1, Cytochrome P450 2C9; test: as §1, with “118.7” left out; conditions: recombinant enzyme, 14.6 µM
Cytochrome P450 2D6 [16] = molecular target: T3, Cytochrome P450 2D6; test: as §1, with “CYP2D6-mediated” for “CYP2C9-mediated”, “129.2” for “118.7”; conditions: recombinant enzyme
Cytochrome P450 3A4 [17] = molecular target: T2, Cytochrome P450 3A4; test: as §1, with “CYP3A4-mediated” for “CYP2C9-mediated”, “80.2” for “118.7”; conditions: recombinant enzyme
Cytochrome P450 2C9 [18] = molecular target: T1, Cytochrome P450 2C9; test: as §1, with “210.8” for “118.7”; conditions: recombinant enzyme
Cytochrome P450 3A4 [19] = molecular target: T2, Cytochrome P450 3A4; test: as §1, with “CYP3A4-mediated” for “CYP2C9-mediated”, “10.7” for “118.7”; conditions: recombinant enzyme
Cytochrome P450 2C9 [20] = molecular target: T1, Cytochrome P450 2C9; test: as §1, with “77.6” for “118.7”; conditions: recombinant enzyme
Cytochrome P450 2D6 [21] = molecular target: T3, Cytochrome P450 2D6; test: as §1, with “CYP2D6-mediated” for “CYP2C9-mediated”, “131.3” for “118.7”; conditions: recombinant enzyme
Cytochrome P450 2C9 [22] = molecular target: T1, Cytochrome P450 2C9; test: as §1, with “28.5” for “118.7”; conditions: recombinant enzyme
Cytochrome P450 2D6 [23] = molecular target: T3, Cytochrome P450 2D6; test: as §1, with “CYP2D6-mediated” for “CYP2C9-mediated”, “6.8” for “118.7”; conditions: recombinant enzyme
Cytochrome P450 2C9 [24] = molecular target: T1, Cytochrome P450 2C9; test: as §1, with “25.3” for “118.7”; conditions: recombinant enzyme
Cytochrome P450 3A4 [25] = molecular target: T2, Cytochrome P450 3A4; test: as §1, with “CYP3A4-mediated” for “CYP2C9-mediated”, “2.2” for “118.7”; conditions: recombinant enzyme
Cytochrome P450 2D6 [26] = molecular target: T3, Cytochrome P450 2D6; test: as §1, with “CYP2D6-mediated” for “CYP2C9-mediated”, “3” for “118.7”; conditions: recombinant enzyme
Cytochrome P450 2D6 [27] = molecular target: T3, Cytochrome P450 2D6; test: as §1, with “CYP2D6-mediated” for “CYP2C9-mediated”, “33.9” for “118.7”; conditions: recombinant enzyme
Cytochrome P450 2C9 [28] = molecular target: T1, Cytochrome P450 2C9; test: as §1, with “34.1” for “118.7”; conditions: recombinant enzyme
Cytochrome P450 3A4 [29] = molecular target: T2, Cytochrome P450 3A4; test: as §1, with “CYP3A4-mediated” for “CYP2C9-mediated”, “25.2” for “118.7”; conditions: recombinant enzyme
Cytochrome P450 2C9 [30] = molecular target: T1, Cytochrome P450 2C9; test: as §1, with “59.9” for “118.7”; conditions: recombinant enzyme
Cytochrome P450 3A4 [31] = molecular target: T2, Cytochrome P450 3A4; test: as §1, with “CYP3A4-mediated” for “CYP2C9-mediated”, “37.6” for “118.7”; conditions: recombinant enzyme
Cytochrome P450 2D6 [32] = molecular target: T3, Cytochrome P450 2D6; test: as §1, with “CYP2D6-mediated” for “CYP2C9-mediated”, “66.8” for “118.7”; conditions: recombinant enzyme
Cytochrome P450 3A4 [33] = molecular target: T2, Cytochrome P450 3A4; test: as §1, with “CYP3A4-mediated” for “CYP2C9-mediated”, “0.3” for “118.7”; conditions: recombinant enzyme
Cytochrome P450 2D6 [34] = molecular target: T3, Cytochrome P450 2D6; test: as §1, with “CYP2D6-mediated” for “CYP2C9-mediated”, “3.4” for “118.7”; conditions: recombinant enzyme
Cytochrome P450 2C9 [35] = molecular target: T1, Cytochrome P450 2C9; test: as §1, with “2.8” for “118.7”; conditions: recombinant enzyme
Cytochrome P450 2C9 [36] = molecular target: T1, Cytochrome P450 2C9; test: as §1, with “78.1” for “118.7”; conditions: recombinant enzyme
Cytochrome P450 2D6 [37] = molecular target: T3, Cytochrome P450 2D6; test: as §1, with “CYP2D6-mediated” for “CYP2C9-mediated”, “20.8” for “118.7”; conditions: recombinant enzyme
Cytochrome P450 3A4 [38] = molecular target: T2, Cytochrome P450 3A4; test: as §1, with “CYP3A4-mediated” for “CYP2C9-mediated”, “14.9” for “118.7”; conditions: recombinant enzyme
Cytochrome P450 2D6 [39] = molecular target: T3, Cytochrome P450 2D6; test: as §1, with “CYP2D6-mediated” for “CYP2C9-mediated”, “8.6” for “118.7”; conditions: recombinant enzyme
Cytochrome P450 2C9 [40] = molecular target: T1, Cytochrome P450 2C9; test: as §1, with “14” for “118.7”; conditions: recombinant enzyme

**Q.** `CN1CC(C(=O)N[C@]2(C)O[C@@]3(O)[C@@H]4CCCN4C(=O)[C@H](Cc4ccccc4)N3C2=O)C[C@@H]2c3cccc4[nH]cc(c34)C[C@H]21` (some centres not stated) was tested. Which “fold change (FC)” value (Cytochrome P450 2C9 [1]) did it give?
**A.** 0.5

**Q.** And the “fold change (FC)” value (Cytochrome P450 3A4 [2])?
**A.** 0.7

**Q.** And the “fold change (FC)” value (Cytochrome P450 2D6 [3])?
**A.** 0.5

**Q.** For `CCC[C@@]1(CCc2ccccc2)CC(O)=C([C@H](CC)c2cccc(NS(=O)(=O)c3ccc(C(F)(F)F)cn3)c2)C(=O)O1`, which “fold change (FC)” value (Cytochrome P450 2D6 [4]) is on record?
**A.** 1

**Q.** What about the “fold change (FC)” value (Cytochrome P450 2C9 [5]) of the same compound?
**A.** 1.6

**Q.** And the “fold change (FC)” value (Cytochrome P450 3A4 [6])?
**A.** 1.3

**Q.** For `CN1[C@@H]2CC[C@H]1C[C@@H](OC(c1ccccc1)c1ccccc1)C2` [BENZTROPINE], which “fold change (FC)” value (Cytochrome P450 3A4 [7]) is on record?
**A.** 1.2

**Q.** And the “fold change (FC)” value (Cytochrome P450 2D6 [8])?
**A.** 0.7

**Q.** What about the “fold change (FC)” value (Cytochrome P450 2C9 [9]) of the same compound?
**A.** 0.5

**Q.** `Cc1c(C)c2c(c(C)c1O)CCC(C)(COc1ccc(CC3SC(=O)NC3=O)cc1)O2` (configuration not stated) [TROGLITAZONE] was tested. Which “fold change (FC)” value (Cytochrome P450 3A4 [10]) did it give?
**A.** 5.5

**Q.** What about the “fold change (FC)” value (Cytochrome P450 2D6 [11]) of the same compound?
**A.** 3.1

**Q.** What about the “fold change (FC)” value (Cytochrome P450 2C9 [12]) of the same compound?
**A.** 1.2

**Q.** Which results are given for `COc1cc(NC(C)CCCN)c2ncccc2c1` (configuration not stated) [PRIMAQUINE]?
**A.** fold change (FC) (Cytochrome P450 3A4 [13]): 12.3; fold change (FC) (Cytochrome P450 2D6 [14]): 16.7; FC (Cytochrome P450 2C9 [15]): 5.5

**Q.** For `CN(C)C/C=C(/c1ccc(Br)cc1)c1cccnc1` [ZIMELDINE], which “fold change (FC)” value (Cytochrome P450 2D6 [16]) is on record?
**A.** 1.8

**Q.** And the “fold change (FC)” value (Cytochrome P450 3A4 [17])?
**A.** 2.8

**Q.** And the “fold change (FC)” value (Cytochrome P450 2C9 [18])?
**A.** 1.1

**Q.** How did the “fold change (FC)” value (Cytochrome P450 3A4 [19]) turn out when `CCN(CC)CC#CCOC(=O)C(O)(c1ccccc1)C1CCCCC1` (configuration not stated) [OXYBUTYNIN] was run?
**A.** 4.3

**Q.** What about the “fold change (FC)” value (Cytochrome P450 2C9 [20]) of the same compound?
**A.** 0.6

**Q.** What about the “fold change (FC)” value (Cytochrome P450 2D6 [21]) of the same compound?
**A.** 0.4

**Q.** How did the “fold change (FC)” value (Cytochrome P450 3A4 [13]) turn out when `CC1=C(CC(=O)O)c2cc(F)ccc2/C1=C\c1ccc([S+](C)[O-])cc1` (configuration not stated) was run?
**A.** 6.9

**Q.** And the “fold change (FC)” value (Cytochrome P450 2C9 [22])?
**A.** 1.6

**Q.** What about the “fold change (FC)” value (Cytochrome P450 2D6 [23]) of the same compound?
**A.** 6.7

**Q.** How did the “fold change (FC)” value (Cytochrome P450 2C9 [24]) turn out when `CC(C)NCC(O)c1ccc(O)c(O)c1` (configuration not stated) [ISOPROTERENOL] was run?
**A.** 11.8

**Q.** And the “fold change (FC)” value (Cytochrome P450 3A4 [25])?
**A.** 135.8

**Q.** And the “fold change (FC)” value (Cytochrome P450 2D6 [26])?
**A.** 100.1

**Q.** Which “fold change (FC)” value (Cytochrome P450 2D6 [27]) does the source give for `COc1cc(C(=O)NS(=O)(=O)c2ccccc2C)ccc1Cc1cn(C)c2ccc(NC(=O)OC3CCCC3)cc12` [ZAFIRLUKAST] here?
**A.** 1.4

**Q.** What about the “fold change (FC)” value (Cytochrome P450 2C9 [28]) of the same compound?
**A.** 1.4

**Q.** And the “fold change (FC)” value (Cytochrome P450 3A4 [29])?
**A.** 1.9

**Q.** With `CC(C)(C)NC[C@H](O)COc1ccccc1C1CCCC1` [PENBUTOLOL] as the compound, how does the “fold change (FC)” value (Cytochrome P450 2C9 [30]) read?
**A.** 0.9

**Q.** And the “fold change (FC)” value (Cytochrome P450 3A4 [31])?
**A.** 1.5

**Q.** And the “fold change (FC)” value (Cytochrome P450 2D6 [32])?
**A.** 0.8

**Q.** For `CC(CCc1ccc(O)cc1)NCCc1ccc(O)c(O)c1` (configuration not stated) [DOBUTAMINE], which “fold change (FC)” value (Cytochrome P450 3A4 [33]) is on record?
**A.** 1023.9

**Q.** And the “fold change (FC)” value (Cytochrome P450 2D6 [34])?
**A.** 89.2

**Q.** What about the “fold change (FC)” value (Cytochrome P450 2C9 [35]) of the same compound?
**A.** 108.1

**Q.** For `CC[C@@H](CO)NC(=O)[C@@H]1C=C2c3cccc4c3c(cn4C)C[C@H]2N(C)C1` [METHYSERGIDE], which “fold change (FC)” value (Cytochrome P450 2C9 [36]) is on record?
**A.** 0.6

**Q.** And the “fold change (FC)” value (Cytochrome P450 2D6 [37])?
**A.** 2.1

**Q.** What about the “fold change (FC)” value (Cytochrome P450 3A4 [38]) of the same compound?
**A.** 2.9

**Q.** How did the “fold change (FC)” value (Cytochrome P450 2D6 [39]) turn out when `CC(COc1ccccc1)N(CCCl)Cc1ccccc1` (configuration not stated) [PHENOXYBENZAMINE] was run?
**A.** 1.5

**Q.** And the “fold change (FC)” value (Cytochrome P450 2C9 [40])?
**A.** 0.9

**Q.** What about the “fold change (FC)” value (Cytochrome P450 3A4 [6]) of the same compound?
**A.** 1.3
